Measured values reported in patent US9969694B2, “N-(arylalkyl)-N′-pyrazolyl-urea, thiourea, guanidine and cyanoguanidine compounds as TrkA kinase inhibitors” (Array BioPharma Inc., priority 2012, dated 2018).

Molecular target: T1, His-tagged recombinant human TrkA (Homo sapiens, UniProt P04629)
T1 construct: 6HIS tagged cytoplasmic domain from Invitrogen, Catalog No. PV3144; purchased Invitrogen PV3144
Assay: TrkA Kinase Binding Assay (LanthaScreen Eu)
Conditions: averaged IC50; TR-FRET binding, 60 min, 22° C.; read-out: TrkA Enzyme IC50
Description: TrkA binding activity was determined in a TrkA LanthaScreen™ Eu Kinase Binding Assay. 5 nM His-tagged recombinant human TrkA (6HIS tagged cytoplasmic domain from Invitrogen, Catalog No. PV3144) was incubated with 4 nM Alexa-Fluor® Tracer 236 (Invitrogen Cat. No. PV5592), 2 nM biotinylated anti-His (Invitrogen Cat. No. PV6090), and 2 nM europium-labeled Streptavidin (Invitrogen Cat. No. PV5899), in buffer (25 mM MOPS, pH 7.5, 5 mM MgCl2, 0.005% Triton X-100). Three fold serial dilutions of compounds of the invention in DMSO were added to a final percentage of 2% DMSO. After 60-minute incubation at 22° C., the reaction was measured using the EnVision mutlimode plate reader (PerkinElmer) via TR-FRET dual wavelength detection at […]. The percent of control was calculated using a ratiometric emission factor. The IC50 values were determined by fitting a four parameter model to the percent of control data.
Table A provides averaged IC50 values for compounds of the invention when tested in the assay of Example A, where A represents an averaged IC50 value <100 nM; B represents an averaged IC50 value from 100 to 1,000 nM; and C represents an average 1050 value above 1000 nM.

T1 sequence (P04629 440-796 limits assumed): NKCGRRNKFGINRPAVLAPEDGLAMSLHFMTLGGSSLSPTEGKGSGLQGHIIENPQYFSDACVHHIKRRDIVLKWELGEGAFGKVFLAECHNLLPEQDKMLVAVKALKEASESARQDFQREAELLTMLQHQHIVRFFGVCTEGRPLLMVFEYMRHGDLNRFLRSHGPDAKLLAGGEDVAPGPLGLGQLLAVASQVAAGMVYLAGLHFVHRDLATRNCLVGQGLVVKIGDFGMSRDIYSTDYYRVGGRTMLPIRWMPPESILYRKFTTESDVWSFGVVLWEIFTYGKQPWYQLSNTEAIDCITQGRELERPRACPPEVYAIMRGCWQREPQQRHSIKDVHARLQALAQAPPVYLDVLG

| Structure (SMILES) | IC50 |
| --- | --- |
| COc1ccccc1CC(Cc1ccccc1)NC(=O)Nc1c2c(nn1-c1ccccc1)CCC2 (stereo not drawn) [Example 48, 1-(1-(2-methoxyphenyl)-3-phenylpropan-2-yl)-3-(2-phenyl-2,4,5,6-tetrahydrocyclopenta[c]pyrazol-3-yl)urea] | 100 to 1000 nM |
| COC(C)c1ccc(C2CCC2)c(CNC(=O)Nc2c(C)c(-c3cnc(C)nc3)nn2-c2ccccc2)c1 (stereo not drawn) [Example 16, 1-(2-cyclobutyl-5-(1-methoxyethyl)benzyl)-3-(4-methyl-3-(2-methylpyrimidin-5-yl)-1-phenyl-1H-pyrazol-5-yl)urea] | 100 to 1000 nM |
| COCc1ccc(OC(F)(F)F)c(CNC(=O)Nc2c(C)c(OC3CN4CCC3CC4)nn2-c2ccccc2)c1 (stereo not drawn) [Example 130, 1-(5-(methoxymethyl)-2-(trifluoromethoxy)benzyl)-3-(4-methyl-1-phenyl-3-(quinuclidin-3-yloxy)-1H-pyrazol-5-yl)urea] | < 100 nM |
| COCc1ccc(OC(F)(F)F)c(CNC(=O)Nc2c(C)c(OC[C@H]3CCN3)nn2-c2ccccc2)c1 [Example 91, (R)-1-(3-(azetidin-2-ylmethoxy)-4-methyl-1-phenyl-1H-pyrazol-5-yl)-3-(5-(methoxymethyl)-2-(trifluoromethoxy)benzyl)urea] | < 100 nM |
| COCc1ccc(OC(F)(F)F)c(CNC(=O)Nc2c(C)c(OC[C@H]3COCCN3)nn2-c2ccccc2)c1 [Example 102, (R)-1-(5-(methoxymethyl)-2-(trifluoromethoxy)benzyl)-3-(4-methyl-3-(morpholin-3-ylmethoxy)-1-phenyl-1H-pyrazol-5-yl)urea] | < 100 nM |
| COCc1cccc(C(NC(=O)Nc2c(C)c(-c3cnn(C)c3)nn2-c2ccccc2)C2CC2)c1 (stereo not drawn) [Example 28, 1-(cyclopropyl(3-(methoxymethyl)phenyl)methyl)-3-(1′,4-dimethyl-1-phenyl-1H,1′H-[3,4′-bipyrazol]-5-yl)urea] | 100 to 1000 nM |
| COCc1ccc(OC(F)(F)F)c(CNC(=O)Nc2c(C)c(-c3ccc(C)nc3)nn2-c2ccccc2)c1 [Example 23, 1-(5-(methoxymethyl)-2-(trifluoromethoxy)benzyl)-3-(4-methyl-3-(6-methylpyridin-3-yl)-1-phenyl-1H-pyrazol-5-yl)urea] | < 100 nM |
| COCc1ccc(OC(F)(F)F)c(CNC(=O)Nc2c(C)c(OCC3CCCN(C)C3)nn2-c2ccccc2)c1 (stereo not drawn) [Example 111, 1-(5-(methoxymethyl)-2-(trifluoromethoxy)benzyl)-3-(4-methyl-3-((1-methylpiperidin-3-yl)methoxy)-1-phenyl-1H-pyrazol-5-yl)urea] | < 100 nM |
| COCc1ccc(C2CC2)c(CNC(=O)Nc2c(C)c(-c3cnn(C)c3)nn2-c2ccccc2)c1 [Example 6, 1-(2-cyclopropyl-5-(methoxymethyl)benzyl)-3-(1′,4-dimethyl-1-phenyl-1H,1′H-[3,4′-bipyrazol]-5-yl)urea] | < 100 nM |
| COCc1ccc(C2CC2)c(CNC(=O)Nc2c(C)c(-c3ccc(=O)n(C)c3)nn2-c2ccccc2)c1 [Example 4, 1-(2-cyclopropyl-5-(methoxymethyl)benzyl)-3-(4-methyl-3-(1-methyl-6-oxo-1,6-dihydropyridin-3-yl)-1-phenyl-1H-pyrazol-5-yl)urea] | < 100 nM |
| Cc1c(-c2cnn(C)c2)nn(-c2ccccc2)c1NC(=O)NCc1ccccc1-c1ccccc1 [Example 50, 1-([1,1′-biphenyl]-2-ylmethyl)-3-(1′,4-dimethyl-1-phenyl-1H,1′H-[3,4′-bipyrazol]-5-yl)urea] | 100 to 1000 nM |
| COCc1ccc(OC(F)(F)F)c(CNC(=O)Nc2c(C)c(OC3CC4(CNC4)C3)nn2-c2ccccc2)c1 [Example 79, 1-(3-(2-azaspiro[3.3]heptan-6-yloxy)-4-methyl-1-phenyl-1H-pyrazol-5-yl)-3-(5-(methoxymethyl)-2-(trifluoromethoxy)benzyl)urea] | < 100 nM |
| COCc1ccc(C2CC2)c(C(C)NC(=O)Nc2c(C)c(-c3cnn(C)c3)nn2-c2ccccc2)c1 (stereo not drawn) [Example 30, 1-(1-(2-cyclopropyl-5-(methoxymethyl)phenyl)ethyl)-3-(1′,4-dimethyl-1-phenyl-1H,1′H-[3,4′-bipyrazol]-5-yl)urea] | 100 to 1000 nM |
| COCc1cccc(C(NC(=O)Nc2c(C)c(-c3ccn(C)c(=O)c3)nn2-c2ccccc2)C2CC2)c1 (stereo not drawn) [Example 27, 1-(cyclopropyl(3-(methoxymethyl)phenyl)methyl)-3-(4-methyl-3-(1-methyl-2-oxo-1,2-dihydropyridin-4-yl)-1-phenyl-1H-pyrazol-5-yl)urea] | 100 to 1000 nM |
| COCc1cccc(C(NC(=O)Nc2c(C)c(-c3cnn(C)c3)nn2-c2ccccc2)C(F)(F)F)c1 (stereo not drawn) [Example 132] | > 1000 nM |
| COCc1ccc(OC(F)(F)F)c(CNC(=O)Nc2c(C)c(OCC3(F)CNC3)nn2-c2ccccc2)c1 [Example 86, 1-(3-((3-fluoroazetidin-3-yl)methoxy)-4-methyl-1-phenyl-1H-pyrazol-5-yl)-3-(5-(methoxymethyl)-2-(trifluoromethoxy)benzyl)urea] | < 100 nM |
| COCc1ccc(-c2ccccc2)c(CNC(=O)Nc2c(C)c(-c3cnn(C)c3)nn2-c2ccccc2)c1 [Example 116, 1-(1′,4-dimethyl-1-phenyl-1H,1′H-[3,4′-bipyrazol]-5-yl)-3-((4-(methoxymethyl)-[1,1′-biphenyl]-2-yl)methyl)urea] | < 100 nM |
| CCOc1ccc(C2CC2)c(CNC(=O)Nc2c(C)c(-c3cnn(C)c3)nn2-c2ccccc2)c1 [Example 15, 1-(2-cyclopropyl-5-ethoxybenzyl)-3-(1′,4-dimethyl-1-phenyl-1H,1′H-[3,4′-bipyrazol]-5-yl)urea] | < 100 nM |
| COCc1ccc(OC(F)(F)F)c(CNC(=O)Nc2c(C)c(OC3CNC3)nn2-c2ccccc2)c1 [Example 89, 1-(3-(azetidin-3-yloxy)-4-methyl-1-phenyl-1H-pyrazol-5-yl)-3-(5-(methoxymethyl)-2-(trifluoromethoxy)benzyl)urea] | < 100 nM |
| COCc1ccc(C2CC2)c(CNC(=O)Nc2c(C)c(-c3cnc(C)nc3)nn2-c2ccccc2)c1 [Example 1, 1-(2-cyclopropyl-5-(methoxymethyl)benzyl)-3-(4-methyl-3-(2-methylpyrimidin-5-yl)-1-phenyl-1H-pyrazol-5-yl)urea] | < 100 nM |

Other lines, results leading:

| IC50 | Structure (SMILES) |
| --- | --- |
| < 100 nM | COCc1ccc(OC(F)(F)F)c(CNC(=O)Nc2c(C)c(OC3CC4(CCN4C)C3)nn2-c2ccccc2)c1 (stereo not drawn) [Example 94, 1-(5-(methoxymethyl)-2-(trifluoromethoxy)benzyl)-3-(4-methyl-3-((1-methyl-1-azaspiro[3.3]heptan-6-yl)oxy)-1-phenyl-1H-pyrazol-5-yl)urea 2,2,2-trifluoroacetate] |
| < 100 nM | CSCc1ccc(C2CCC2)c(CNC(=O)Nc2c(C)c(-c3cnn(C)c3)nn2-c2ccccc2)c1 [Example 123, 1-(2-cyclobutyl-5-((methylthio)methyl)benzyl)-3-(1′,4-dimethyl-1-phenyl-1H,1′H-[3,4′-bipyrazol]-5-yl)urea] |
| < 100 nM | COCc1ccc(OC(F)(F)F)c(CNC(=O)Nc2c(C)c(OC[C@@H]3CCN3)nn2-c2ccccc2)c1 [Example 92, (S)-1-(3-(azetidin-2-ylmethoxy)-4-methyl-1-phenyl-1H-pyrazol-5-yl)-3-(5-(methoxymethyl)-2-(trifluoromethoxy)benzyl)urea] |
| < 100 nM | COCc1ccc(OC(F)(F)F)c(CNC(=O)Nc2c(C)c(OCC3CCNCC3)nn2-c2ccccc2)c1 [Example 67, 1-(5-(methoxymethyl)-2-(trifluoromethoxy)benzyl)-3-(4-methyl-1-phenyl-3-(piperidin-4-ylmethoxy)-1H-pyrazol-5-yl)urea] |
| < 100 nM | COCc1ccc(OC(F)(F)F)c(CNC(=O)Nc2c(C)c(OC[C@@H]3COCCN3C)nn2-c2ccccc2)c1 [Example 110, (S)-1-(5-(methoxymethyl)-2-(trifluoromethoxy)benzyl)-3-(4-methyl-3-((4-methylmorpholin-3-yl)methoxy)-1-phenyl-1H-pyrazol-5-yl)urea] |
| < 100 nM | COCc1ccc(OC(F)(F)F)c(CNC(=O)Nc2c3c(nn2-c2ccccc2)CS(=O)(=O)C3)c1 [Example 58, 1-(5,5-dioxido-2-phenyl-4,6-dihydro-2H-thieno[3,4-c]pyrazol-3-yl)-3-(5-(methoxymethyl)-2-(trifluoromethoxy)benzyl)urea] |
| < 100 nM | COCc1ccc(OC(F)(F)F)c(CNC(=O)Nc2c(C)c(O[C@@H]3CCNC3)nn2-c2ccccc2)c1 [Example 84, (R)-1-(5-(methoxymethyl)-2-(trifluoromethoxy)benzyl)-3-(4-methyl-1-phenyl-3-(pyrrolidin-3-yloxy)-1H-pyrazol-5-yl)urea] |
| < 100 nM | O=C(Nc1c2c(nn1-c1ccccc1)CCC2)NC(Cc1ccccc1)Cc1ccccc1Cl (stereo not drawn) [Example 46, 1-(1-(2-chlorophenyl)-3-phenylpropan-2-yl)-3-(2-phenyl-2,4,5,6-tetrahydrocyclopenta[c]pyrazol-3-yl)urea] |
| < 100 nM | CCOc1nn(-c2ccccc2)c(NC(=O)NCc2cc(COC)ccc2C2CC2)c1C [Example 2, 1-(2-cyclopropyl-5-(methoxymethyl)benzyl)-3-(3-ethoxy-4-methyl-1-phenyl-1H-pyrazol-5-yl)urea] |
| < 100 nM | CNC(=O)c1nn(-c2ccccc2)c(NC(=O)NCc2cc(COC)ccc2OC(F)(F)F)c1C [Example 55, 5-(3-(5-(methoxymethyl)-2-(trifluoromethoxy)benzyl)ureido)-N,4-dimethyl-1-phenyl-1H-pyrazole-3-carboxamide] |
